For one assay, the system named is K562. The experiment in a line: Cytotoxicity against human K562 cells. Format: functional, cell-based.
The next assay relates to A2780. The experiment in a line: Cytotoxicity against human A2780 cells. The class given is functional, cell-based.

Turning to `CC(C)[C@@H](C)[C@@]1(C)C[C@@H]1[C@@H](C)[C@H]1CC[C@@H]([C@H]2C(=O)[C@@]3(C)CC[C@H](O)C[C@@]34O[C@H]4[C@@H]2O)[C@]1(C)CCO`, the figures for the half-maximal inhibitory concentration (IC50) with K562 and in the assay with A2780 were 7.1 µM and 6.3 µM, respectively.
